Read-outs that look alike come from different tables or passages of the source.
Tests used:
Experiment in all cases: Post-emergence action, greenhouse pot test, visual scoring
Assay type in all cases: in vivo
[1] = test system: Lolium multiflorum (LOLMU); settings: read-out: % activity found; for inhibition at 30 g/ha: 30 g of ai/ha; for inhibition at 10 g/ha: 10 g of ai/ha
Method: (§1) Seeds or rhizome pieces of mono- and dicotyledonous harmful and useful plants were placed in peat pots (diameter 4 cm) filled with sandy loam and then covered with soil. The pots were kept in a greenhouse under optimum conditions. In addition, harmful plants encountered in paddy rice cultivation were cultivated in pots with a water level 2 cm above the soil surface.
(§2) About three weeks after the start of the cultivation, the test plants were treated at the 2- to 3-leaf stage. The herbicides, formulated as powder or liquid concentrates, were, either alone or in the combinations according to the invention, sprayed in various dosages on to the green parts of the plants using an application rate of 600 l of water/ha (converted). For further cultivation of the plants, the pots were then again kept under optimum conditions in a greenhouse.
(§3) The visual scoring of the herbicidal effects was carried out in intervals up to 21 days after the treatment. Scoring was carried out in percent in comparison to the untreated control plants. 0%=no herbicidal activity, 100%=complete herbicidal activity=complete kill.
(§4) The percentages from the treatments with the herbicides alone (=individual application) and with the combinations according to the invention (=mixtures) were employed to calculate interactions using the method of Colby. When the observed efficacies of the mixtures exceed the formal sum of the values of the tests with individual applications, they also exceed the expected value according to Colby, which is calculated using the formula below (cf. S. R. Colby; in Weeds 15 (1967) pp. 20 to 22):
(§5) • A, B=activity of components A and B in percent at a dosage of a and b g of ai/ha (=gramm of active substance per hectare), respectively. • E=expected value in % at a dosage of a+b g of ai/ha.

[2] = test system: Matricaria inodora (MATIN); settings: Tripleurospermum inodorum, read-out: % activity found; for inhibition at 30 g/ha / inhibition at 10 g/ha: MATIN; for inhibition at 30 g/ha: 30 g of ai/ha; for inhibition at 10 g/ha: 10 g of ai/ha
Method: as §1, §2, §3, §4, §5

Oryza sativa (ORYSA) = settings: read-out: % activity found
Method: as §1, §2, §3, §4, §5

[3] = test system: Triticum aestivum (TRZAS); settings: read-out: % activity found; for inhibition at 30 g/ha: 30 g of ai/ha
Method: as §1, §2, §3, §4, §5

[4] = test system: Alopecurus myosuroides (ALOMY); settings: 504 h, read-out: % activity found
Method: as §1, §2, §3, §4, §5

Avena fatua (AVEFA) = settings: read-out: % activity found
Method: as §1, §2, §3, §4, §5

[5] = test system: Cyperus esculentus (CYPES); settings: for (7) % activity found: CYPES, 21 DAT
Method: as §1, §2, §3, §4, §5

Viola tricolor (VIOTR) = settings: read-out: % activity found; for inhibition at 10 g/ha / inhibition at 30 g/ha: VIOTR; for inhibition at 10 g/ha: 10 g of ai/ha; for inhibition at 30 g/ha: 30 g of ai/ha
Method: as §1, §2, §3, §4, §5

Zea mays (ZEAMX) = settings: read-out: % activity found; for inhibition at 10 g/ha: 10 g of ai/ha
Method: as §1, §2, §3, §4, §5

[6] = test system: Abuthilon theophrasti (ABUTH); settings: Abutilon theophrasti, read-out: % activity found; for inhibition at 10 g/ha / inhibition at 30 g/ha: ABUTH; for inhibition at 10 g/ha: 10 g of ai/ha; for inhibition at 30 g/ha: 30 g of ai/ha
Method: as §1, §2, §3, §4, §5

[7] = test system: Amaranthus retroflexus (AMARE); settings: read-out: % activity found; for inhibition at 10 g/ha / inhibition at 30 g/ha: AMARE; for inhibition at 10 g/ha: 10 g of ai/ha; for inhibition at 30 g/ha: 30 g of ai/ha
Method: as §1, §2, §3, §4, §5

[8] = test system: Fallopia (ex Polygonum) convolvulus (POLCO); settings: read-out: % activity found
Method: as §1, §2, §3, §4, §5

[9] = test system: Pharbitis purpurea (PHBPU); settings: Ipomoea purpurea, read-out: % activity found; for inhibition at 10 g/ha / inhibition at 30 g/ha: PHBPU; for inhibition at 10 g/ha: 10 g of ai/ha; for inhibition at 30 g/ha: 30 g of ai/ha
Method: as §1, §2, §3, §4, §5

Veronica persica (VERPE) = settings: read-out: % activity found; for inhibition at 10 g/ha: 10 g of ai/ha
Method: as §1, §2, §3, §4, §5

[10] = Cyperus esculentus, 504 h, read-out: % activity found

CCOC(=O)C(C)OC(=O)c1cc(Oc2ccc(C(F)(F)F)cc2Cl)ccc1[N+](=O)[O-] (racemic) [B1-5, (±)-2-ethoxy-1-methyl-2-oxoethyl 5-[2-chloro-4-(trifluoromethyl)phenoxy]-2-nitrobenzoate]
inhibition at 30 g/ha ([1]; 504 h, 21 DAT): 20% | inhibition at 30 g/ha ([2]; 504 h, 21 DAT): 80% | inhibition at 30 g/ha (Oryza sativa (ORYSA); 240 h, ORYSA, 10 DAT, 30 g of ai/ha): 40% | inhibition at 30 g/ha ([3]; 504 h, TRZAS, 21 DAT): 20%

O=C(O)COc1ccc(Cl)cc1Cl [B5-2, (2,4-dichlorophenoxy)acetic acid]
inhibition at 70 g/ha [4]: 0% | inhibition at 210 g/ha [4]: 0% | inhibition at 70 g/ha (Avena fatua (AVEFA); 504 h): 0% | inhibition at 210 g/ha (Avena fatua (AVEFA); 504 h): 0% | inhibition at 70 g/ha [5, 10]: 0% | inhibition at 210 g/ha ([3]; 240 h): 0% | inhibition at 210 g/ha (Viola tricolor (VIOTR); 504 h): 60% | inhibition at 70 g/ha (Zea mays (ZEAMX); 240 h): 0% | inhibition at 210 g/ha (Zea mays (ZEAMX); 240 h): 40% | inhibition at 70 g/ha (Zea mays (ZEAMX); 504 h): 0%

C[C@@H](Oc1ccc(Oc2ccc(C#N)cc2F)cc1)C(=O)O [B7-2, (2R)-2-[4-(4-cyano-2-fluorophenoxy)phenoxy]propanoic acid]
inhibition at 25 g/ha ([6]; 504 h): 0% | inhibition at 75 g/ha ([6]; 504 h): 0% | inhibition at 25 g/ha [4]: 0% | inhibition at 75 g/ha [4]: 20% | inhibition at 25 g/ha ([7]; 240 h): 0% | inhibition at 25 g/ha ([7]; 504 h): 0% | inhibition at 75 g/ha ([7]; 504 h): 0% | inhibition at 25 g/ha (Avena fatua (AVEFA); 504 h): 0% | inhibition at 25 g/ha [5, 10]: 0% | inhibition at 75 g/ha [5, 10]: 0% | inhibition at 25 g/ha ([8]; 240 h): 0% | inhibition at 75 g/ha ([8]; 240 h): 0% | inhibition at 25 g/ha ([8]; 504 h): 0% | inhibition at 75 g/ha ([8]; 504 h): 0% | inhibition at 25 g/ha ([2]; 504 h): 0% | inhibition at 75 g/ha ([2]; 504 h): 0% | inhibition at 25 g/ha (Oryza sativa (ORYSA); 504 h): 10% | inhibition at 75 g/ha (Oryza sativa (ORYSA); 504 h): 20% | inhibition at 25 g/ha ([9]; 240 h): 0% | inhibition at 75 g/ha ([9]; 240 h): 20% | inhibition at 25 g/ha ([9]; 504 h): 0% | inhibition at 75 g/ha ([9]; 504 h): 0% | inhibition at 75 g/ha (Veronica persica (VERPE); 240 h): 0% | inhibition at 25 g/ha (Veronica persica (VERPE); 504 h): 0% | inhibition at 75 g/ha (Veronica persica (VERPE); 504 h): 0% | inhibition at 75 g/ha (Viola tricolor (VIOTR); 240 h): 0% | inhibition at 25 g/ha (Viola tricolor (VIOTR); 504 h): 0% | inhibition at 75 g/ha (Viola tricolor (VIOTR); 504 h): 0% | inhibition at 25 g/ha (Zea mays (ZEAMX); 240 h): 70% | inhibition at 25 g/ha (Zea mays (ZEAMX); 504 h): 70%

C[C@@H](Oc1ccc(Oc2nc3ccc(Cl)cc3o2)cc1)C(=O)O [B7-4, (R)-2-[4-(6-chlorobenzoxazol-2-yloxy)phenoxy]propionic acid]
inhibition at 10 g/ha ([6]; 240 h, 10 DAT): 0% | inhibition at 30 g/ha ([6]; 240 h, 10 DAT): 0% | inhibition at 10 g/ha ([6]; 504 h, 21 DAT): 0% | inhibition at 30 g/ha ([6]; 504 h, 21 DAT): 0% | inhibition at 10 g/ha ([4]; ALOMY, 21 DAT, 10 g of ai/ha): 30% | inhibition at 30 g/ha ([4]; ALOMY, 21 DAT, 30 g of ai/ha): 30% | inhibition at 10 g/ha ([7]; 240 h, 10 DAT): 0% | inhibition at 30 g/ha ([7]; 240 h, 10 DAT): 0% | inhibition at 10 g/ha ([7]; 504 h, 21 DAT): 0% | inhibition at 30 g/ha ([7]; 504 h, 21 DAT): 0% | inhibition at 10 g/ha (Avena fatua (AVEFA); 240 h, AVEFA, 10 DAT, 10 g of ai/ha): 0% | inhibition at 30 g/ha (Avena fatua (AVEFA); 504 h, AVEFA, 21 DAT, 30 g of ai/ha): 0% | (7) % activity found ([5]; (6) dose of B7-4 10, alone): 0% | (7) % activity found ([5]; (6) dose of B7-4 30, alone): 0% | inhibition at 10 g/ha ([8]; 504 h, POLCO, 21 DAT, 10 g of ai/ha): 0% | inhibition at 30 g/ha ([8]; 504 h, POLCO, 21 DAT, 30 g of ai/ha): 0% | inhibition at 10 g/ha ([1]; 240 h, 10 DAT): 20% | inhibition at 10 g/ha ([1]; 504 h, 21 DAT): 0% | inhibition at 30 g/ha ([1]; 504 h, 21 DAT): 0% | inhibition at 10 g/ha ([2]; 240 h, 10 DAT): 0% | inhibition at 30 g/ha ([2]; 240 h, 10 DAT): 0% | inhibition at 10 g/ha ([2]; 504 h, 21 DAT): 0% | inhibition at 30 g/ha ([2]; 504 h, 21 DAT): 0% | inhibition at 10 g/ha ([9]; 240 h, 10 DAT): 0% | inhibition at 30 g/ha ([9]; 240 h, 10 DAT): 0% | inhibition at 10 g/ha ([9]; 504 h, 21 DAT): 0% | inhibition at 30 g/ha ([9]; 504 h, 21 DAT): 0% | inhibition at 10 g/ha ([3]; 240 h, TRZAS, 10 DAT, 10 g of ai/ha): 0% | inhibition at 30 g/ha ([3]; 240 h, TRZAS, 10 DAT): 0% | inhibition at 10 g/ha (Veronica persica (VERPE); 240 h, VERPE, 10 DAT): 0% | inhibition at 10 g/ha (Veronica persica (VERPE); 504 h, VERPE, 21 DAT): 0% | inhibition at 30 g/ha (Veronica persica (VERPE); 504 h, VERPE, 21 DAT, 30 g of ai/ha): 0% | inhibition at 10 g/ha (Viola tricolor (VIOTR); 240 h, 10 DAT): 0% | inhibition at 30 g/ha (Viola tricolor (VIOTR); 240 h, 10 DAT): 0% | inhibition at 10 g/ha (Viola tricolor (VIOTR); 504 h, 21 DAT): 0% | inhibition at 30 g/ha (Viola tricolor (VIOTR); 504 h, 21 DAT): 0% | inhibition at 10 g/ha (Zea mays (ZEAMX); 240 h, ZEAMX, 10 DAT): 30% | inhibition at 30 g/ha (Zea mays (ZEAMX); 240 h, ZEAMX, 10 DAT, 30 g of ai/ha): 70% | inhibition at 10 g/ha (Zea mays (ZEAMX); 504 h, ZEAMX, 21 DAT): 20%
